Reference: ChEMBL document CHEMBL5365480, “Potent and selective carbonic anhydrase inhibition activities of pyrazolones bearing benzenesulfonamides” (Bioorg Med Chem Lett, 2023)

Legend:
[1] = biological target: Carbonic anhydrase 1 (Homo sapiens, UniProt P00915); assay: Inhibition of human CA I assessed as inhibition constant by stopped-flow CO2 hydrase assay method
[2] = biological target: Carbonic anhydrase 2 (Homo sapiens, UniProt P00918); assay: Inhibition of human CA II assessed as inhibition constant by stopped-flow CO2 hydrase assay method
[3] = biological target: Carbonic anhydrase 9 (Homo sapiens, UniProt Q16790); assay: Inhibition of human CA IX assessed as inhibition constant by stopped-flow CO2 hydrase assay method
[4] = biological target: Carbonic anhydrase 12 (Homo sapiens, UniProt O43570); assay: Inhibition of human CA XII assessed as inhibition constant by stopped-flow CO2 hydrase assay method
Chain of Carbonic anhydrase 12 (O43570 whole entry): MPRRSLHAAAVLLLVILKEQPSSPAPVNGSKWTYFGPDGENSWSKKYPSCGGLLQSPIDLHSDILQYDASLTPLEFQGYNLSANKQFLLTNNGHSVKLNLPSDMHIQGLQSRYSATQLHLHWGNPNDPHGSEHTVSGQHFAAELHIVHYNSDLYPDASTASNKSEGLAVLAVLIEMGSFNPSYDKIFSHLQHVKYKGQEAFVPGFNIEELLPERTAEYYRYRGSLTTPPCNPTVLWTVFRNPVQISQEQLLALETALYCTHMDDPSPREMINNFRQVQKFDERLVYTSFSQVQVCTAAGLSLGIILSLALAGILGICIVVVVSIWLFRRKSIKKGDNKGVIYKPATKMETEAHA

Chain of Carbonic anhydrase 1 (P00915 whole entry): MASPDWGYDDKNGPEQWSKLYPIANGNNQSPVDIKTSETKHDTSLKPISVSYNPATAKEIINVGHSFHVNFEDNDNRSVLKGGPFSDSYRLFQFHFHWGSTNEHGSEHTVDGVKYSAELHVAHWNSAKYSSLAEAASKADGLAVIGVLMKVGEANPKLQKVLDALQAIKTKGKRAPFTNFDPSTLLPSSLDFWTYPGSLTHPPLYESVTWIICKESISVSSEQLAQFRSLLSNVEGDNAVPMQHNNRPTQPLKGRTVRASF

| Ki [1] [nM] | Ki [2] [nM] | Ki [3] [nM] | Ki [4] [nM] | SMILES |
| --- | --- | --- | --- | --- |
| 495 | 0.5 | 60.7 | 3.9 | CC1=NN(c2ccc(C#N)cc2)C(=O)/C1=N/Nc1cccc(S(N)(=O)=O)c1 |
| 53200 | 473 | 158 | 273 | CC1=NN(c2ccc(Cl)cc2Cl)C(=O)/C1=N/Nc1cccc(S(N)(=O)=O)c1 |
| 9080 | 290 | 70.7 | 123 | CC1=NN(c2ccccc2Cl)C(=O)/C1=N/Nc1cccc(S(N)(=O)=O)c1 |
| 53.1 | 2.5 | 36.2 | 161 | CC1=NNC(=O)/C1=N/Nc1ccc(S(N)(=O)=O)cc1 |
| 712 |  | 8.7 | 48.8 | CC1=NN(c2ccccc2)C(=O)/C1=N/Nc1ccc(S(N)(=O)=O)cc1 |
| 504 | 59 | 3.2 | 9.2 | CC1=NN(c2ccc(C#N)cc2)C(=O)/C1=N/Nc1ccc(S(N)(=O)=O)cc1 |
| 376 | 186 | 44.9 | 40.6 | CC1=NN(c2ccc(C)cc2)C(=O)/C1=N/Nc1cccc(S(N)(=O)=O)c1 |
| 8310 | 6.6 | 15 | 53.5 | CC1=NN(c2ccccc2)C(=O)/C1=N/Nc1cccc(S(N)(=O)=O)c1 |
| 7800 | 327 | 40.2 | 90.6 | CC1=NN(c2ccc(Cl)cc2)C(=O)/C1=N/Nc1cccc(S(N)(=O)=O)c1 |
| 5270 | 72 | 8.5 | 6.7 | CC1=NN(c2ccc(Cl)cc2Cl)C(=O)/C1=N/Nc1ccc(S(N)(=O)=O)cc1 |
| 217 | 139 | 22.9 | 87.2 | CC1=NNC(=O)/C1=N/Nc1cccc(S(N)(=O)=O)c1 |
| 337 | 6.1 | 25.1 | 66.1 | CC1=NN(c2ccc(C)cc2)C(=O)/C1=N/Nc1ccc(S(N)(=O)=O)cc1 |
| 7420 | 77.6 | 31.2 | 73.7 | CC1=NN(c2ccccc2Cl)C(=O)/C1=N/Nc1ccc(S(N)(=O)=O)cc1 |
| 8640 | 21.1 | 1.1 | 24.6 | CC1=NN(c2ccc(Cl)cc2)C(=O)/C1=N/Nc1ccc(S(N)(=O)=O)cc1 |
